# Reference: PMC10964662, “Domperidone inhibits cell proliferation via targeting MEK and CDK4 in esophageal squamous cell carcinoma” (Cancer Cell International, 2024)
# Columns and labels:
# MEK2 = target: T1, MEK2 (Homo sapiens, UniProt P36507); test: SPR (Biacore T200, CM5 chip); also pull-down, DARTS and in vitro kinase assay; format: binding
# T1 construct: gene MAP2K2; active MEK2 human recombinant protein
# CDK4 = CDK4 (Homo sapiens, UniProt P11802); test: pull-down with domperidone-Sepharose 4B beads and DARTS in KYSE150/KYSE450 lysates; format: cell-based
# MEK1 = target: T2, MEK1 (Homo sapiens, UniProt Q02750); test: SPR (Biacore T200, CM5 chip); also pull-down, DARTS and in vitro kinase assay; format: binding
# T2 construct: gene MAP2K1; active MEK1 human recombinant protein
# T2 sequence (Q02750 whole entry): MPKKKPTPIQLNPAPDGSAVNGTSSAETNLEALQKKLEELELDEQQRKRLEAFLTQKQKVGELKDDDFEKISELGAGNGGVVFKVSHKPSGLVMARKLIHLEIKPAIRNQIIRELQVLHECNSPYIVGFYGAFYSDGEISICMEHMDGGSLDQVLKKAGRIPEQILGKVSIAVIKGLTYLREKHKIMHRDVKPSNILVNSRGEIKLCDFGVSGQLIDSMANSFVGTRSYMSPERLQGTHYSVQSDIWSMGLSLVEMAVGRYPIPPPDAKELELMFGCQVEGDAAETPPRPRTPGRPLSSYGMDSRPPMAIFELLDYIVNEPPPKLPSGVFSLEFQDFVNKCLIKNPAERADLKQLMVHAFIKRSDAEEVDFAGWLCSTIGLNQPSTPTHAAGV
# T1 sequence (P36507 whole entry): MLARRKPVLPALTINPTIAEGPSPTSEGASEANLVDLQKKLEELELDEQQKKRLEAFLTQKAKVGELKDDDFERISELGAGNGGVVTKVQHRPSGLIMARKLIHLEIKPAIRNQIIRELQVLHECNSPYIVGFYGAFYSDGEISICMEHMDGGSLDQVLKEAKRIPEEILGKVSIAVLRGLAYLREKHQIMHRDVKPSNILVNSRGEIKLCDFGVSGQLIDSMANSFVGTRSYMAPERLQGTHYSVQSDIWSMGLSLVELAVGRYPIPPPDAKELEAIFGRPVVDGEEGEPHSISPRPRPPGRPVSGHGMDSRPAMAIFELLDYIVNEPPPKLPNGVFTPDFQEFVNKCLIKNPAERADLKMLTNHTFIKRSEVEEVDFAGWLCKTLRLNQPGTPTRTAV
# Chain of CDK4 (P11802 2-303): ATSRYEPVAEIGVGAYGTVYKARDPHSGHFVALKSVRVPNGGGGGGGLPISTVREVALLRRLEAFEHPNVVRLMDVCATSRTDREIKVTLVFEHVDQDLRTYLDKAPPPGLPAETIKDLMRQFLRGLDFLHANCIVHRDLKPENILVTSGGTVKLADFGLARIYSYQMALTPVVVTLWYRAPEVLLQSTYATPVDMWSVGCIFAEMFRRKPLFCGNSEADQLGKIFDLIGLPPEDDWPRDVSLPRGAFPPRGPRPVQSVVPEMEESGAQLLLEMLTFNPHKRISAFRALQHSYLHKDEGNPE
compound,measurement,setting,value
"O=c1[nH]c2ccccc2n1CCCN1CCC(n2c(=O)[nH]c3cc(Cl)ccc32)CC1 [compound 9, Domperidone]",Kd,MEK2,6.66 µM
same,pull-down with domperidone-Sepharose 4B beads and DARTS in KYSE150/KYSE450 lysat,CDK4,"DARTS assay also validated that domperidone could directly interact with MEK1, MEK2 and CDK4 ex vivo"
same,Kd,MEK1,6.2 µM
